Results from US20120095022A1, “DERIVATIVES OF 10-AMINO-1,2,3,4-TETRAHYDROPYRIDO[2,1-A]ISOINDOL-6(10BH)-ONES, METHOD FOR PREPARATION THEREOF AND THERAPEUTIC USES THEREOF” (UNIVERSITE D'ORLEANS, priority 2009, published 2012).

Legend:
Huh7 (liver) = experiment: Cytotoxicity on human cells, automated nuclei counting: Huh7; assay type: cell-based; conditions: Huh-7, exposed 24 h to 48 h, 0.1 to 25 μM
Procedure: (§1) Cytotoxicity: This method is based on an automated imaging analysis. 4.10^3 cells were cultivated on 96-well plates and left for 24 hours so as to bind, to spread and proliferate.
(§2) All the cell lines were cultivated in a DMEM or RPMI (Invitrogen) medium. All these media were completed with antibiotics (penicillin-streptomycin) (Lonza) and 10% by volume of fetal calf serum (Invitrogen). The cells were cultivated at 37° C. with 5% of CO2. The treatments with the molecules to be tested were carried out with increasing concentrations. The control experiments were also carried out by using suitable dilutions of DMSO (maximum 1% DMSO).

Caco (colon) = experiment: Cytotoxicity on human cells, automated nuclei counting: Caco; assay type: cell-based; conditions: exposed 24 h to 48 h, 0.1 to 25 μM
Procedure: as §1, §2

MDA-MB 231 (breast) = experiment: Cytotoxicity on human cells, automated nuclei counting: MDA-MB 231; assay type: cell-based; conditions: MDA-MB 231 cells, exposed 24 h to 48 h, 0.1 to 25 μM
Procedure: as §1, §2

HCT 116 (colon) = experiment: Cytotoxicity on human cells, automated nuclei counting: HCT 116; assay type: cell-based; conditions: HCT 116 cells, exposed 24 h to 48 h, 0.1 to 25 μM
Procedure: as §1, §2

PC3 (prostate) = experiment: Cytotoxicity on human cells, automated nuclei counting: PC3; assay type: cell-based; conditions: PC-3, exposed 24 h to 48 h, 0.1 to 25 μM
Procedure: as §1, §2

NCI (lung) = experiment: Cytotoxicity on human cells, automated nuclei counting: NCI; assay type: cell-based; conditions: exposed 24 h to 48 h, 0.1 to 25 μM
Procedure: as §1, §2

fibroblast = experiment: Cytotoxicity on human cells, automated nuclei counting: fibroblast; assay type: cell-based; conditions: exposed 24 h to 48 h, 0.1 to 25 μM
Procedure: as §1, §2

CDK5/D25 = biological target: T1, CDK5/D25 (Homo sapiens, UniProt Q00535); experiment: CDK5 kinase inhibition (33P-ATP, histone H1); assay type: biochemical; conditions: buffer C, 30° C., 15 μM ATP, read-out: IC50 μM Kinases CDK5
T1 construct: made in house
Procedure: The protein kinase inhibition activities of the compounds of the invention are tested according to the following general procedure:
Buffer C: 60 mM β-glycerophosphate, 15 mM p-nitrophenyl-phosphate, 25 mM Mops (pH 7.2), 5 mM EGTA, 15 mM mgCl2, 1 mM DTT, 1 mM sodium vanadate and 1 mM phenylphosphate.
The controls were made with suitable dilutions of DMSO.
ATP (3.000 Ci/mmol.; 10 mCi/mL) in a final volume of 30 μL. After 30 mins of incubation at 30° C., 25 μL of supernatant aliquots were deposited on phosphocellulose Whatman P81 paper pieces of 2.5×3 cm, and after 20 seconds, the filters were washed five times (for at least 5 minutes each time) in a solution of 10 mL of phosphoric acid/1 litre of water. The wet filters were counted in the presence of 1 mL of scintillation fluid ACS (Amersham).

GSK-3αβ = experiment: GSK-3 kinase inhibition (GS-1 substrate); conditions: read-out: IC50 μM Kinases GSK3, buffer A, 30° C., 15 μM ATP
DYRK1A = DYRK1A (Homo sapiens, UniProt Q13627); experiment: DYRK1A kinase inhibition (Woodtide substrate)

T1 sequence (Q00535 whole entry): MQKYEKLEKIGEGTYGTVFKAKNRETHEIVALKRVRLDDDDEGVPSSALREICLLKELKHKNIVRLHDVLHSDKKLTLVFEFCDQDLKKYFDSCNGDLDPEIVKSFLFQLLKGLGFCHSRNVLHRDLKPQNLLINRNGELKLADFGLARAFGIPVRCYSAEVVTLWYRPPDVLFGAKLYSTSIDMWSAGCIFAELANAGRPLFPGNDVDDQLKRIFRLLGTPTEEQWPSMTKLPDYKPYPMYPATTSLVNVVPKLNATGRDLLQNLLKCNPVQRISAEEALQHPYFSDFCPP
T1 sequence (Q15078 99-307 partner limits assumed): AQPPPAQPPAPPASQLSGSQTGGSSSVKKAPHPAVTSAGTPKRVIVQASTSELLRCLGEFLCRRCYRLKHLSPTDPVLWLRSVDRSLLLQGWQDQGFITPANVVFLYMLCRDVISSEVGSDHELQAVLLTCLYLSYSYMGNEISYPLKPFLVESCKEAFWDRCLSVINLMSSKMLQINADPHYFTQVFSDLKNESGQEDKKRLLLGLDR

| IC50 (CDK5/D25) | melting point | IC50 (GSK-3αβ) | IC50 (DYRK1A) | Compound | IC50 (Huh7 (liver)) | IC50 (Caco (colon)) | IC50 (MDA-MB 231 (breast)) | IC50 (HCT 116 (colon)) | IC50 (PC3 (prostate)) | IC50 (NCI (lung)) | IC50 (fibroblast) |
| --- | --- | --- | --- | --- | --- | --- | --- | --- | --- | --- | --- |
| 0.13 µM | 225 °C | 0.076 µM | 21000 nM | O=C(Nc1ccc(Br)cn1)Nc1cccc2c1C1CCCCN1C2=O (stereo not drawn) [Compound 18, 1-(5-Bromopyridin-2-yl)-3-(6-oxo-1,2,3,4,6,10b-hexahydropyrido[2,1-a]isoindol-10-yl)urea] | > 25 µM | > 25 µM | > 25 µM | > 25 µM | > 25 µM | > 25 µM | > 25 µM |
| 0.04 µM | 218 to 220 °C | 0.043 µM | 3400 nM | O=C(Nc1cccc(Br)n1)Nc1cccc2c1C1CCCCN1C2=O (stereo not drawn) [Compound 19, 1-(6-Bromopyridin-2-yl)-3-(6-oxo-1,2,3,4,6,10b-hexahydropyrido[2,1-a]isoindol-10-yl)urea] | > 25 µM | > 25 µM | > 25 µM | > 25 µM | > 25 µM | > 25 µM | > 25 µM |
| 0.9 µM | 254 °C | 0.026 µM | 3500 nM | O=C(Nc1cccc(F)n1)Nc1cccc2c1C1CCCCN1C2=O (stereo not drawn) [Compound 23, 1-(6-Fluoropyridin-2-yl)-3-(6-oxo-1,2,3,4,6,10b-hexahydropyrido[2,1-a]isoindol-10-yl)urea] | 0.1 µM | 0.03 µM | 0.03 µM | < 0.01 µM | 0.03 µM | 0.3 µM | 0.3 µM |
| 1.5 µM | 218 °C | 0.36 µM | 71000 nM | O=C(Nc1ccncn1)Nc1cccc2c1C1CCCCN1C2=O (stereo not drawn) [Compound 32, 1-(6-Oxo-1,2,3,4,6,10b-hexahydropyrido[2,1-a]isoindol-10-yl)-3-(pyrimidin-4-yl)urea] |  |  |  |  |  |  |  |
|  | 246 °C | 4.3 µM | > 100000 nM | O=C(Nc1cccc2c1C1CCCCN1C2=O)Nc1nc(Cl)c(Cl)c(Cl)c1Cl (stereo not drawn) [Compound 33, 1-(6-oxo-1,2,3,4,6,10b-hexahydropyrido[2,1-a]isoindol-10-yl)-3-(perchloro-pyridin-2-yl)urea] | 0.25 µM | 1.5 µM | 0.5 µM | 0.5 µM | 1 µM | 0.8 µM | 0.5 µM |
| ≥ 10 µM | 135 °C | 1.9 µM | > 10000 nM | Cn1ccc(NC(=O)Nc2cccc3c2C2CC4(CCN2C3=O)SCCS4)n1 (stereo not drawn) [Compound 40, 1-(6′-Oxo-3′,4′,6′,10b′-tetrahydro-1′H-spiro[[1,3]dithiolane-2,2′-pyrido[2,1-a]isoindole]-10′-yl)-3-(1-Methyl-1H-pyrazol-3-yl)urea] |  |  |  |  |  |  |  |
| 0.51 µM | 233 °C | 0.31 µM | > 10000 nM | Cn1ccc(NC(=O)Nc2cccc3c2C2CCCCN2C3=O)n1 (stereo not drawn) [Compound 41, 1-(1-Methyl-1H-pyrazol-3-yl)-3-(6-oxo-1,2,3,4,6,10b-hexahydro-pyrido[2,1-a]isoindol-10-yl)-urea] |  |  |  |  |  |  |  |
| > 10 µM |  | 4 µM | > 10000 nM | COc1cc(NC(=O)Nc2cccc3c2C2CC4(CCN2C3=O)SCCS4)nc2ccccc12 (stereo not drawn) [Compound 49] | 5 µM | 15 µM | 20 µM | 10 µM | 15 µM | 10 µM | 25 µM |
| 0.55 µM |  | 0.081 µM | > 10000 nM | COC1CCN2C(=O)c3cccc(NC(=O)Nc4ccccn4)c3C2C1 (stereo not drawn) [Compound 53, 1-(2-Methoxy-6-oxo-1,2,3,4,6,10b-hexahydropyrido[2,1-a]isoindol-10-yl)-3-(pyridin-2-yl)urea] | 0.7 µM | 2.5 µM | 2 µM | 1 µM | 2 µM | 4 µM | 3 µM |
| 4.3 µM |  | 0.32 µM | > 10000 nM | COC1CCN2C(=O)c3cccc(NC(=O)Nc4cccc(C)n4)c3C2C1 (stereo not drawn) [Compound 56, 1-(2-Methoxy-6-oxo-1,2,3,4,6,10b-hexahydropyrido[2,1-a]isoindol-10-yl)-3-(6-methylpyri-din-2-yl)urea] | 3 µM | 6 µM | 7 µM | 3 µM | 6 µM | 10 µM | 7 µM |
| 1.1 µM |  |  | > 10000 nM | COC1CCN2C(=O)c3cccc(NC(=O)Nc4ncccc4C)c3C2C1 (stereo not drawn) [Compound 57, 1-(2-Methoxy-6-oxo-1,2,3,4,6,10b-hexahydropyrido[2,1-a]isoindol-10-yl)-3-(3-methylpyridin-2-yl)urea] | 1.2 µM | 2 µM | 2.2 µM | 1 µM | 1.2 µM | 4 µM | 3 µM |
| 0.32 µM |  | 0.032 µM | > 10000 nM | COC1CCN2C(=O)c3cccc(NC(=O)Nc4cc(C)ccn4)c3C2C1 (stereo not drawn) [Compound 58, 1-(2-methoxy-6-oxo-1,2,3,4,6,10b-hexahydropyrido[2,1-a]isoindol-10-yl)-3-(4-methylpyridin-2-yl)urea] | 0.1 µM | 0.5 µM | 0.3 µM | 0.03 µM | 0.4 µM | 0.4 µM | 0.5 µM |
| 2.3 µM |  |  | > 10000 nM | COC1CCN2C(=O)c3cccc(NC(=O)Nc4ccn(C)n4)c3C2C1 (stereo not drawn) [Compound 60, 1-(2-methoxy-6-oxo-1,2,3,4,6,10b-hexahydropyrido[2,1-a]isoindol-10-yl)-3-(1-methyl-1H-pyrazol-3-yl)urea] | 2 µM | 15 µM | 10 µM | 4 µM | 7 µM | 2 µM | 15 µM |
|  | 195 °C | 2.3 µM | 47000 nM | O=C1c2cccc(NC(=S)Nc3ccccn3)c2C2CCCCN12 (stereo not drawn) [Compound 62, 1-(6-Oxo-1,2,3,4,6,10b-hexahydropyrido[2,1-a]isoindol-10-yl)-3-(pyridin-2-yl)thiourea] | > 25 µM | 20 µM | 25 µM | 8 µM | 20 µM | > 25 µM | > 25 µM |
| 8.7 µM |  | 2.1 µM | > 100000 nM | O=C1c2cccc(NC(=S)Nc3ccc(Br)cn3)c2C2CCCCN12 (stereo not drawn) [Compound 66, 1-(5-Bromopyridin-2-yl)-3-(6-oxo-1,2,3,4,6,10b-hexahydropyrido[2,1-a]isoindol-10-yl)thiourea] | > 25 µM | 2 µM | 2 µM | 3 µM | > 25 µM | 25 µM | 4 µM |
| > 10 µM | > 260 °C | 1.3 µM | ≥ 10000 nM | O=C1CCN2C(=O)c3cccc(NC(=O)Nc4cc(O)c5ccccc5n4)c3C2C1 (stereo not drawn) [Compound 103, 1-(2,6-Dioxo-1,2,3,4,6,10b-hexahydropyrido[2,1-a]isoindol-10-yl)-3-(4-hydroxyquinolin-2-yl)urea] |  |  |  |  |  |  |  |
| > 10 µM | > 260 °C | 2.5 µM | ≥ 10000 nM | O=C(Nc1cc(O)c2ccccc2n1)Nc1cccc2c1C1CC(O)CCN1C2=O (stereo not drawn) [Compound 110, 1-(2-Hydroxy-6-oxo-1,2,3,4,6,10b-hexahydropyrido[2,1-a]isoindol-10-yl)-3-(4-hydroxyquinolin-2-yl)urea] |  |  |  |  |  |  |  |
|  | 136 °C | 0.4 µM | > 10000 nM | CC(C)(C)OC(=O)n1ccc(NC(=O)Nc2cccc3c2C2CCCCN2C3=O)n1 (stereo not drawn) [Compound 118] |  |  |  |  |  |  |  |
|  | 185 °C | 0.47 µM | > 10000 nM | O=C(Nc1cc[nH]n1)Nc1cccc2c1C1CCCCN1C2=O (stereo not drawn) [Compound 119, 1-(6-Oxo-1,2,3,4,6,10b-hexahydro-pyrido[2,1-a]isoindol-10-yl)-3-(1H-pyrazol-3-yl)-urea] |  |  |  |  |  |  |  |
